In one series the test system is SH-SY5Y cells. The settings on record: cited from earlier work.
The test system of a further series is AChE mRNA. Put plainly: AChE mRNA expression by qRT-PCR. It counts as cell-based. The settings on record: 250 µM H2O2 alone (vs control) or with 0.1 µM drug (vs H2O2 alone), 24 h, 2^−ΔΔCt, GAPDH. As to the method:
SH-SY5Y cells were cultivated on collagen-coated 6-well plates at a density of 1.0 × 10^5 cells/well. […]. The purity and concentration of the isolated RNA were assessed by measuring absorbance at 260 nm and 280 nm. cDNA was synthesized from 1 μg of total RNA using the OneScript Plus cDNA Synthesis Kit (G236, Abmgood). Subsequent to cDNA synthesis, quantitative real-time PCR (qRT-PCR) was conducted on a Roche Light Cycler 96 real-time PCR System utilizing the SYBR Green PCR Kit BlasTaq 2X qPCR MasterMix (G891, Abmgood) according to established protocols. All amplification reactions for each sample were performed in triplicate, and the experiments were repeated at least three times. The relative mRNA expression levels were quantified using the 2^−ΔΔCt method, normalizing the data against glyceraldehyde-3-phosphate dehydrogenase (GAPDH). Primer sequences are listed as follows: GAPDH forward, 5′-[…]-3′ and reverse, 5′-[…]-3′; AChE forward, 5′-[…]-3′ and reverse, 5′-[…]-3′.
A general note: Real-time PCR tracks product formation cycle by cycle.

The subject of series [1] is (d)-SH-SY5Y cells. Put plainly: Cell viability (MTT), H2O2 alone or co-treatment with H2O2 and drugs. Particulars: for cell viability compared to H2O2 alone: 10 μM drug + 250 µM H2O2, 24 h. The protocol: (§1) Cells were cultured under standard conditions and used for experiments between passages 5 and 20 to maintain phenotypic consistency and avoid passage-related variability. To ensure the validity of the experimental data and avoid confounding effects, the cell line was routinely tested for Mycoplasma contamination using a PCR-based Mycoplasma detection kit (MycoFluor™ Mycoplasma Detection Kit, Thermo Fisher Scientific). […] Differentiated cells were plated at 1.0 × 10^4 cell/cm^2 confluency and treated with retinoic acid (RA) (R2625-50MG, Sigma Aldrich) at a 10 µM concentration in DMEM/F12 1% FBS for 6 days with RA pulses on every other day. The (d)-SH-SY5Y cells with acquired neuronal properties were used in our experiments involving toxin application and drug treatments.
(§2) (d)-SH-SY5Y cells were cultured in collagen-coated 96-well plates (1.0 × 10^4 cell/well). […] The appropriate dose and time for H2O2 used in our study were determined according to the findings obtained in a preliminary study. Data are expressed as a percentage of cell viability compared to control cultures.

Series [2] has as its target T1, AChE (Homo sapiens, UniProt P22303). Put plainly: Cellular AChE activity (ELISA). The format is cell-based. The arrangement: To extract the total protein from the treated (d)-SH-SY5Y cells; endogenous in cells; host or cells: differentiated SH-SY5Y (human neuroblastoma). The settings on record: (d)-SH-SY5Y. As to the method: SH-SY5Y cells were cultivated on collagen-coated 6-well plates at a density of 1.0 × 10^5 cells/well. […] To extract the total protein from the treated (d)-SH-SY5Y cells, the cultures were rinsed twice with cold phosphate-buffered saline (PBS), followed by scraping to collect the cells. The resulting cell suspension was transferred to 1.5 mL tubes, which were then centrifuged at 10,000 × g for 5 min at 4 °C. The supernatant was carefully discarded, and the cell pellets were lysed using RIPA buffer. The total protein concentration present in the extracts was quantified using the Bicinchoninic Acid (BCA) assay. Any remaining protein was stored at − 80 °C until the time of enzymatic analysis. Relative AChE activity was determined using an equal amount of total protein and employing an Enzyme-Linked Immunosorbent Assay (ELISA) (Human AchE (Acetylcholinesterase) Kit, ELK4614-96 T), following the manufacturer’s guidelines.
On the technique in general: ELISA stands for enzyme-linked immunosorbent assay.

Series [3] has as its system (d)-SH-SY5Y cells. In words: Neurite analysis by microscopy (NeuronJ/ImageJ). The format is cell-based, human. Particulars: 250 µM H2O2 alone or with 0.1 µM drug. The protocol: SH-SY5Y cells were cultivated on collagen-coated 6-well plates at a density of 1.0 × 10^5 cells/well. Following the differentiation and treatments, microscopic examination of the cell groups was assessed using an inverted microscope (Zeiss Axio) at × 20 objective. Images were taken with multiple independent images for an individual treatment. Images were analyzed for neurite lengths and the number of homogeneous neurites per cell by NeuronJ of ImageJ software; soma size was determined by the Neurphology plugin of ImageJ [46]. Cells with cell extensions longer than twice the cell body diameter were considered neurite-bearing cells. 100 cells were counted from 10 different areas selected to determine neurite density (number of neurites per cell) and neurite length for each sample. The data were expressed as the mean ± SEM from three independent experiments.

In another series the test system is cleaved caspase-3. Put plainly: Cleaved caspase-3 ELISA in H2O2-treated cells. The format is cell-based, human. Particulars: 250 μM H2O2 alone (vs untreated) or with CNI (vs H2O2 alone), 24 h, n = 2. The protocol: The quantification of cleaved caspase-3 levels in cell lysates was performed using a commercially available human cleaved caspase-3 ELISA kit (E6970HU, BT Lab), according to the manufacturer’s instructions. SH-SY5Y cells were seeded in collagen-coated 6-well plates (1.0 × 10^5 cell/well) and differentiated. Cells were exposed to 250 μM H2O2 in the presence or absence of CNI compounds for 24 h. Following treatment, cells were collected, diluted with PBS, and destroyed by multiple freeze–thaw cycles, both treated and untreated. The levels of cleaved caspase-3 in the cell lysates were measured in the order recommended by the manufacturer. The BCA assay (44,132, Expedeon) was used to compare the total protein contents in treated and untreated cells.

Series [4] deals with T1, AChE. Put plainly: biochemical. The protocol: The inhibition of AChE activity in vitro was evaluated following the methodology outlined by Ellman et al., with some modifications implemented. […] The enzyme activity was expressed as a percentage relative to a control assay conducted without any inhibitor. The percentage inhibition of AChE activity was determined by comparing the absorbance values with those of the negative control, using the following equation:
AChE inhibition % = ((A0 − A1)/A0) × 100.
In this equation, A0 represents the absorbance of the control lacking the sample, while A1 indicates the absorbance of the sample tested.
Dose–response curves were generated and analyzed using GraphPad Prism version 8.0, applying a sigmoidal dose–response model with variable slope (four-parameter logistic regression). IC50 values were derived from the fitted curves and are expressed in micromolar (µM).

For series [5], the system named is (d)-SH-SY5Y cells. In words: Cell viability (MTT), drugs alone. Particulars: 0.01–10 μM, (d)-SH-SY5Y, no oxidative stress. As to the method: as §1, §2
The nature of series [6]: Cell viability (MTT), drugs alone. The settings on record: human. As to the method: as §1, §2
[7] abbreviates: 0.1 μM drug + 250 µM H2O2, 24 h, vs H2O2 alone.

Values joined by “and” are separate entries in the source; they are usually repeats but may differ in a detail not shown here. Equal values may be shown once. “Also recorded” adds a separate entry of the source. Read-outs that look alike come from different tables or passages of the source.

T1 sequence (P22303 32-614): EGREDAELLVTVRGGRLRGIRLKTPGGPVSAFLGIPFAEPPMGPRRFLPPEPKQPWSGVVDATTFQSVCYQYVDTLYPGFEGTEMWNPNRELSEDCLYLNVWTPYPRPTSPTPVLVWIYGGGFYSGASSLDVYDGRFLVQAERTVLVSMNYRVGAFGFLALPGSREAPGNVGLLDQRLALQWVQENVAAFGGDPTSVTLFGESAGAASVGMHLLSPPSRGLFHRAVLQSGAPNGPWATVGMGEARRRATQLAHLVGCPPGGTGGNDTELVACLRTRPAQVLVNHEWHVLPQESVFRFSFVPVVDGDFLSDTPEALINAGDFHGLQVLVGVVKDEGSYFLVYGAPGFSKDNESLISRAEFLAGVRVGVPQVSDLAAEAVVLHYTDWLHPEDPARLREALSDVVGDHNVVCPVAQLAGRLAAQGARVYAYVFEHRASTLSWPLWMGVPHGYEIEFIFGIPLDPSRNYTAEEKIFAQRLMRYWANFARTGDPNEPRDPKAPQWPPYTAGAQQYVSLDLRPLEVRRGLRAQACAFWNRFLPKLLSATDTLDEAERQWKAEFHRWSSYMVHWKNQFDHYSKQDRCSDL

Consider `COc1ccc2c3c1O[C@H]1C[C@@H](O)C=C[C@@]31CCN(C)C2` [Gal, Galantamine], for which, in the series with SH-SY5Y cells (1.25 mg/mL), the reduction in viability was 17%. Besides, in the series on SH-SY5Y cells, the CC50 is approximately 5000 µM, the “concentrations at which cell viability remained comparable to controls” value was “up to 10 μM” and the “concentrations with significant reductions in viability” value was not below 100 µM. Besides, in the series on SH-SY5Y cells (differentiated SH-SY5Y cells), the “concentrations with no cytotoxic effect” value is given as “up to 50 μM”.

For the compound `OO` [H2O2], in the series with AChE mRNA, the “AChE mRNA expression” value is recorded as “significant upregulation of AChE mRNA expression”. Also, in the series on (d)-SH-SY5Y cells [1] (250 µM H2O2 alone, 24 h, compared to the control group), the average cell viability was 57.8 ± 5%. At AChE [2] (250 μM H2O2 alone, 24 h), the “increase of AChE activity compared to the control” value is listed as 1.45 fold. Further, in the series with (d)-SH-SY5Y cells [3], the “Neurite index (neurite/cell)” value is 0.8 ± 0.2 neurite/cell and 0.8 ± 0.2*^p=0.001 neurite/cell; the Neurite length was 39.6 ± 6.3 μm and 39.6 ± 6.3*^p=0.001 μm. For the same compound, the caspase-3 levels result in the series with cleaved caspase-3 is “significant increase in caspase-3 levels”.

Take `CC[C@@H]1/C=C(\C)C[C@H](C)C[C@H](OC)[C@H]2O[C@@](O)(C(=O)C(=O)N3CCCC[C@H]3C(=O)O[C@H](/C(C)=C/[C@@H]3CC[C@H](Cl)[C@H](OC)C3)[C@H](C)[C@@H](O)CC1=O)[C@H](C)C[C@@H]2OC` [Pim, Pimecrolimus]: the “AChE mRNA expression” value in the series with AChE mRNA is listed as “significantly reduced AChE mRNA levels”. Also, the “protective effect on cell viability against H2O2” value (“protective effect” for short) in the series on (d)-SH-SY5Y cells [1] (1 µM drug + 250 µM H2O2, 24 h) was “best protected cell viability”. For the same compound, at AChE [4], the midpoint of inhibition, the IC50, lay at 2.15 ± 0.1 µM. Moreover, the “cytotoxicity of drug alone” value with (d)-SH-SY5Y cells [5] is recorded as “did not show detectable cytotoxicity”. In the series with (d)-SH-SY5Y cells [3], the “Neurite index (neurite/cell)” value worked out at 1.1 ± 0.3 neurite/cell and the Neurite length is given as 39.8 ± 5.7 μm. For the same compound, the caspase-3 levels result in the series on cleaved caspase-3 is given as “significantly attenuated this increase”.

Take `C=CC[C@@H]1/C=C(\C)C[C@H](C)C[C@H](OC)[C@H]2O[C@@](O)(C(=O)C(=O)N3CCCC[C@H]3C(=O)O[C@H](/C(C)=C/[C@@H]3CC[C@@H](O)[C@H](OC)C3)[C@H](C)[C@@H](O)CC1=O)[C@H](C)C[C@@H]2OC` [Tac, Tacrolimus]: the “AChE mRNA expression” value in the series with AChE mRNA is “significantly reduced AChE mRNA levels”. The “protective effect” value in the series with (d)-SH-SY5Y cells [1] (setting [7]) is recorded as “not statistically significant”. Also, the “cell viability compared to H2O2 alone” value with (d)-SH-SY5Y cells [1] was “significantly reduced cell viability”. At AChE [4], this compound came in with an IC50 of 4.24 ± 0.1 µM. In addition, in [6], the viability at 24 h, 1 µM is 55.2 ± 2.5% and the viability at 24 h, 10 µM was determined as 50.1 ± 2%. Moreover, in the series on (d)-SH-SY5Y cells [3], the “Neurite index (neurite/cell)” value was 1.2 ± 0.1 neurite/cell and the Neurite length was 34.5 ± 3.5 μm. The caspase-3 levels result with cleaved caspase-3 is listed as “did not significantly modulate caspase-3 expression”.

Consider `C=C/C=C/C[C@@H](C)[C@@H](O)[C@H]1C(=O)N[C@@H](CC)C(=O)N(C)CC(=O)N(C)[C@@H](CC(C)C)C(=O)N[C@@H](C(C)C)C(=O)N(C)[C@@H](CC(C)C)C(=O)N[C@@H](C)C(=O)N[C@H](C)C(=O)N(C)[C@@H](CC(C)C)C(=O)N(C)[C@@H](CC(C)C)C(=O)N(C)[C@@H](C(C)C)C(=O)N1C` [Voc, Voclosporin], for which, in the series with AChE mRNA, the “AChE mRNA expression” value is given as “significantly reduced AChE mRNA levels”. For the same compound, the “protective effect” value in the series with (d)-SH-SY5Y cells [1] (setting [7]) is listed as “significantly increasing cell viability compared to the H2O2-only group”. Also, in the series on (d)-SH-SY5Y cells [1], the “cell viability compared to H2O2 alone” value was “further decrease in cell viability; also recorded: significantly reduced cell viability”. In addition, the AChE activity on AChE [2] (0.1 μM drug + 250 μM H2O2, 24 h) is on record as 96.3 ± 2.3%. Further, the “AChE inhibitory effect compared to galantamine” value on AChE [4] (0.01 µM) is “higher AChE inhibitory effect compared to galantamine”. Moreover, the IC50 on AChE [4] (read-out: IC50 against AChE, recombinant human AChE, Ellman method, 0.01–10 µM, four-parameter fit) is 0.004 ± 0.0002 µM. In series [6], this compound showed a viability at 24 h, 1 µM of 75.5 ± 4.8% and a viability at 24 h, 10 µM of 62.1 ± 3.6%. In the series on (d)-SH-SY5Y cells [3], the “Neurite index (neurite/cell)” value is 1.3 ± 0.3^#p=0.02 neurite/cell and the Neurite length is reported as 45.4 ± 5.5^#p=0.04 μm. In addition, the caspase-3 levels entry with cleaved caspase-3 was “significantly attenuated this increase”.

As usually defined, the CC50 is the concentration at which the toxic effect on the cells reaches its halfway point. By IC50 is commonly meant the point on the concentration scale where inhibition reaches its midpoint. The viability is a per cent measure of how many cells are alive, often set against a control.

The values above are taken from publication PMC12559140 (Molecular Neurobiology, 2025).
